Source: the supplement of paper PMC10307832

Tests used:
Test in all cases: relative viability (nuclei count vs DMSO), 5 days (fraction); higher = more cells survive
[1] = system: SW 900
In short: (§1)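 Lung cancer cell lines, seeded in 1536-well plates, were treated the following day by pin tool with a single drug or with five library-drug doses (not always all listed) in √10 steps on top of a fixed anchor-drug dose. Cells were fixed and nuclei stained in one step after 5 days, and nuclei were counted. Relative viability is the nuclei count for treated wells divided by that for vehicle wells, reported as medians of duplicate plates.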

[2] = system: EPLC-272H
In short: as §1

[3] = system: UMC-11
In short: as §1

[4] = system: NCI-H2085
In short: as §1

[5] = system: LC-2-ad
In short: as §1

[6] = system: COR-L 105
In short: as §1

[7] = system: SK-LU-1
In short: as §1

[8] = system: NCI-H1915
In short: as §1

[9] = system: HOP-62
In short: as §1

[10] = system: NCI-H1666
In short: as §1

[11] = system: NCI-H1944
In short: as §1

[12] = system: LU99A
In short: as §1

[13] = system: NCI-H2170
In short: as §1

[14] = system: NCI-H358
In short: as §1

[15] = system: HCC-78
In short: as §1

[16] = system: A-427
In short: as §1

[17] = system: NCI-H460
In short: as §1

[18] = system: HCC-366
In short: as §1

[19] = system: NCI-H2009
In short: as §1

[20] = system: LXF-289
In short: as §1

[21] = system: NCI-H1793
In short: as §1

Which results are given for `CCN(CC)CCCCNc1ncc2cc(-c3cc(OC)cc(OC)c3)c(NC(=O)NC(C)(C)C)nc2n1` + Cc1cc(Nc2cc(N3CCN(C)CC3)nc(Sc3ccc(NC(=O)C4CC4)cc3)n2)n[nH]1 [Tozasertib] (partner 0.1 µM)?
relative viability ([1]; first compound 0.01 µM): 0.662; relative viability ([1]; first compound 0.03162 µM): 0.573; relative viability ([1]; first compound 0.3162 µM): 0.451; relative viability ([1]; first compound 1 µM): 0.382; relative viability ([2]; first compound 0.01 µM): 0.282; relative viability ([2]; first compound 0.03162 µM): 0.314; relative viability ([2]; first compound 0.1 µM): 0.279; relative viability ([2]; first compound 0.3162 µM): 0.212; relative viability ([2]; first compound 1 µM): 0.234; relative viability ([3]; first compound 0.01 µM): 0.214; relative viability ([3]; first compound 0.03162 µM): 0.203; relative viability ([3]; first compound 0.1 µM): 0.204; relative viability ([3]; first compound 0.3162 µM): 0.195; relative viability ([3]; first compound 1 µM): 0.196; relative viability ([4]; first compound 0.01 µM): 0.819; relative viability ([4]; first compound 0.03162 µM): 0.762; relative viability ([4]; first compound 0.1 µM): 0.823; relative viability ([4]; first compound 0.3162 µM): 0.729; relative viability ([4]; first compound 1 µM): 0.639; relative viability ([5]; first compound 0.01 µM): 0.416; relative viability ([5]; first compound 0.03162 µM): 0.467; relative viability ([5]; first compound 0.1 µM): 0.433; relative viability ([5]; first compound 0.3162 µM): 0.483; relative viability ([5]; first compound 1 µM): 0.453; relative viability ([6]; first compound 0.01 µM): 0.366; relative viability ([6]; first compound 0.03162 µM): 0.345; relative viability ([6]; first compound 0.1 µM): 0.374; relative viability ([6]; first compound 0.3162 µM): 0.354; relative viability ([6]; first compound 1 µM): 0.354; relative viability ([7]; first compound 0.01 µM): 0.306; relative viability ([7]; first compound 0.03162 µM): 0.359; relative viability ([7]; first compound 0.1 µM): 0.388; relative viability ([7]; first compound 0.3162 µM): 0.363; relative viability ([7]; first compound 1 µM): 0.259; relative viability ([8]; first compound 0.01 µM): 0.464; relative viability ([8]; first compound 0.03162 µM): 0.489; relative viability ([8]; first compound 0.1 µM): 0.48; relative viability ([8]; first compound 0.3162 µM): 0.461; relative viability ([8]; first compound 1 µM): 0.348; relative viability ([9]; first compound 0.01 µM): 0.473; relative viability ([9]; first compound 0.03162 µM): 0.377; relative viability ([9]; first compound 0.1 µM): 0.386; relative viability ([9]; first compound 0.3162 µM): 0.408; relative viability ([9]; first compound 1 µM): 0.319; relative viability ([10]; first compound 0.01 µM): 0.529; relative viability ([10]; first compound 0.03162 µM): 0.635; relative viability ([10]; first compound 0.1 µM): 0.673; relative viability ([10]; first compound 0.3162 µM): 0.672; relative viability ([10]; first compound 1 µM): 0.614; relative viability ([11]; first compound 0.01 µM): 0.25; relative viability ([11]; first compound 0.03162 µM): 0.27; relative viability ([11]; first compound 0.1 µM): 0.248; relative viability ([11]; first compound 0.3162 µM): 0.249; relative viability ([11]; first compound 1 µM): 0.213; relative viability ([12]; first compound 0.01 µM): 0.283; relative viability ([12]; first compound 0.03162 µM): 0.281; relative viability ([12]; first compound 0.1 µM): 0.324; relative viability ([12]; first compound 0.3162 µM): 0.269; relative viability ([12]; first compound 1 µM): 0.265; relative viability ([13]; first compound 0.01 µM): 0.619; relative viability ([13]; first compound 0.03162 µM): 0.77; relative viability ([13]; first compound 0.1 µM): 0.747; relative viability ([13]; first compound 0.3162 µM): 0.755; relative viability ([13]; first compound 1 µM): 0.65; relative viability ([14]; first compound 0.01 µM): 0.108; relative viability ([14]; first compound 0.03162 µM): 0.0902; relative viability ([14]; first compound 0.1 µM): 0.115; relative viability ([14]; first compound 0.3162 µM): 0.104; relative viability ([14]; first compound 1 µM): 0.101; relative viability ([15]; first compound 0.01 µM): 0.433; relative viability ([15]; first compound 0.03162 µM): 0.399; relative viability ([15]; first compound 0.1 µM): 0.507; relative viability ([15]; first compound 0.3162 µM): 0.55; relative viability ([15]; first compound 1 µM): 0.446; relative viability ([16]; first compound 0.01 µM): 0.199; relative viability ([16]; first compound 0.03162 µM): 0.206; relative viability ([16]; first compound 0.1 µM): 0.202; relative viability ([16]; first compound 0.3162 µM): 0.174; relative viability ([16]; first compound 1 µM): 0.182; relative viability ([17]; first compound 0.01 µM): 0.458; relative viability ([17]; first compound 0.03162 µM): 0.66; relative viability ([17]; first compound 0.1 µM): 0.477; relative viability ([17]; first compound 0.3162 µM): 0.474; relative viability ([17]; first compound 1 µM): 0.311; relative viability ([18]; first compound 0.01 µM): 0.112; relative viability ([18]; first compound 0.03162 µM): 0.135; relative viability ([18]; first compound 0.1 µM): 0.102; relative viability ([18]; first compound 0.3162 µM): 0.107; relative viability ([18]; first compound 1 µM): 0.0931; relative viability ([19]; first compound 0.01 µM): 0.816; relative viability ([19]; first compound 0.03162 µM): 0.72; relative viability ([19]; first compound 0.1 µM): 0.912; relative viability ([19]; first compound 0.3162 µM): 0.821; relative viability ([19]; first compound 1 µM): 0.573; relative viability ([20]; first compound 0.01 µM): 0.201; relative viability ([20]; first compound 0.03162 µM): 0.219; relative viability ([20]; first compound 0.1 µM): 0.268; relative viability ([20]; first compound 0.3162 µM): 0.186; relative viability ([20]; first compound 1 µM): 0.156; relative viability ([21]; first compound 0.01 µM): 0.311; relative viability ([21]; first compound 0.03162 µM): 0.367; relative viability ([21]; first compound 0.1 µM): 0.362; relative viability ([21]; first compound 0.3162 µM): 0.348; relative viability ([21]; first compound 1 µM): 0.241
